Laboratory results from patent US5750540A, “1,4-di-substituted piperidine derivatives” (Banyu Pharmaceutical Co., Ltd., priority 1995, dated 1998).
Where two headings read alike, the source gives them in different places.

What was measured:
bladder M3 receptors = target: T1, bladder M3 receptors (Rattus norvegicus, UniProt P08483); test: Antagonism against bladder M3 receptors in an isolated rat bladder; details: in vitro, agonist carbachol
T1 construct: the bladder was excised; from tissue; host or cells: isolated rat bladder
Protocol: 5) Tests for antagonism against the bladder M3 receptors in an isolated rat bladder
These tests were performed according to an ordinary method. A male SD strain rat (weighing 200-400 g) was killed by exsanguination, and the bladder was excised. This bladder axially cut into eight parts to make bladder preparations. A preparation was suspended in a Magnus tube filled with 5 ml of Krebs-Henseleit nutrient solution (gassed with 95% O2 -5% CO2 and kept at 32° C.) with an initial tension of 0.5 g. The tension of the preparation was recorded isometrically. After being equilibrated for an hour, the preparation was made to contract twice by treatment with 10^-4 M carbachol, and the second contraction induced by carbachol was used as the reference contraction. After the preparation was washed with fresh solution to make a return to the base line, a test compound was administered thereto (or no treatment was made). Ten minutes later, carbachol (10^-8 to 10^-3 M) was cumulatively administered from the lower-most concentration in three-fold increasing doses to obtain a dose-response curve. The dose-response curve was constructed by expressing responses as percentages based on the reference contraction of the preparation. The antagonistic potency (KB value) of the test compound was determined from the degree of shift of the dose-response curve obtained by treatment with the test compound.

muscarinic M3 receptor [1] = target: T2, muscarinic M3 receptor (Rattus norvegicus, UniProt P08483); test: Intestinal propulsion in rats (charcoal meal); format: in vivo; set-up: from tissue; details: i.v., 15% inhibition of intestinal propulsion
Protocol: (§1) Tests for antagonism against muscarinic M3 receptor (in vivo)
5) Tests for intestinal propulsion in rats
Five- to seven-weeks-old male rats of the Sprague-Dawley strain were fasted overnight. A test compound was administered intravenously to the animals. Five minutes later, 1 ml per animal of a 5% charcoal suspension was administered orally. Thirty minutes after administration of the charcoal meal, the rats were sacrificed by decapitation, and the gastrointestinal tract was removed. The distance from the pylorus to the point of arrival of the charcoal meal was measured and the transportation rate was calculated. The ID15 value was calculated from the dose-response curve using probit analysis and defined as the drug dose that inhibited intestinal propulsion in the control group by 15%.

muscarinic M3 receptor [2] = target: T2, muscarinic M3 receptor; test: in vivo; set-up: from tissue; host or cells: living rat, airways; details: iv, read-out: Mydriasis ED50
Protocol: as §1
3) Tests for mydriasis in rats
Five- to seven-weeks-old male rats of the Sprague-Dawley strain were anesthetized with pentobarbital (65 mg/kg, i.p.), and a cannula was inserted into the right jugular vein for purposes of drug administration. By using a graduated scale (pulilometer), pupillary responses to drugs were measured to the nearest 0.1 mm at the point of the greatest diameter. […] Responses were expressed as percentages of the maximal increase in pupil diameter induced by administration of atropine (30 μg/kg, i.v.). The ED50 value was calculated from the dose-response curve of the test compound using probit analysis and defined as the drug dose that induced 50% of the maximal response.

muscarinic M3 receptor [3] = target: T2, muscarinic M3 receptor; test: Inhibition of binding to muscarinic M3 receptors ([3H]-N-methylscopolamine, lacrimal gland membrane); set-up: a membrane specimen from the lacrimal glands was used as the membrane specimen; from tissue; host or cells: rat lacrimal gland membranes (SD rat)
Protocol: In these tests, their inhibitory and antagonistic effects were expressed in terms of the dissociation constant (Ki) of each test compound which was calculated from its concentration (IC50 ) causing a 50% inhibition of the binding of a labeled ligand to muscarinic receptors. As the labeled ligand, [^3 H]-telenzepine was used for the muscarinic M1 receptors and [^3 H]-N-methylscopolamine for the muscarinic M2 and M3 receptors.
A male SD strain rat (purchased from Nippon Charles River Co., Ltd.), weighing about 250-350 g, was sacrificed, and the cerebral cortex, heart and lacrimal glands were excised. Using a Polytron (setting 5), each organ was homogenized in 5 volumes of an ice-cold buffer solution (pH 7.4) containing 50 mM tris-HCl, 5 mM magnesium chloride, 1 mM trisodium ethylenediaminetetraacetate and 20% sucrose. The resulting homogenate was centrifuged at 3,000×g at 4° C. for 15 minutes, and the supernatant was filtered through gauze and ultracentrifuged at 100,000×g at 4° C. for 45 minutes. The resulting precipitate was suspended in an ice-cold buffer solution (pH 7.4) containing 50 mM tris-HCl and 5 mM magnesium chloride (hereinafter referred briefly to as "tris buffer") and ultracentrifuged at 100,000×g at 4° C. for 45 minutes. The resulting precipitate was suspended in tris buffer so as to give a concentration of 50 mg/ml and stored at -80° C. till use. The membrane specimens so prepared were thawed prior to use and submitted to tests for the inhibition of binding to muscarinic receptors.
4) Tests for the inhibition of binding to the muscarinic M2 receptors
The nonspecific binding of [^3 H]-N-methylscopolamine to receptors was determined by the addition of 1 mM N-methylscopolamine.

muscarinic M3 receptor [4] = target: T2, muscarinic M3 receptor; test: in vivo; set-up: from tissue; host or cells: living rat, airways; details: iv, read-out: Salivary secretion ID50
Protocol: as §1
2) Tests for salivary secretion in rats
Five- to seven-weeks-old male rats of the Sprague-Dawley strain were anesthetized with sodium pentobarbital (65 mg/kg, i.p.), and a cannula was inserted into the right jugular vein for purposes of drug administration. A test compound was administered intravenously. Five minutes later, carbachol (10 μg/kg, i.v.) was administered to evoke salivary secretion. For each rat, saliva collection was started immediately after carbachol administration and continued for ten minutes. This was carried out by inserting glass capillaries (Drummond, 100 μl) into the oral cavity of the rat at intervals of one minute. The amount of collected saliva was determined on the assumption that a length of 75 mm of the glass capillary corresponded to 100 μl. Physiological saline was used in the control group. The ID50 value was calculated from the dose-response curve of the test compound using probit analysis and defined as the drug dose that inhibited the carbachol-induced salivation in the control group by 50%.

T2 sequence (P08483 whole entry): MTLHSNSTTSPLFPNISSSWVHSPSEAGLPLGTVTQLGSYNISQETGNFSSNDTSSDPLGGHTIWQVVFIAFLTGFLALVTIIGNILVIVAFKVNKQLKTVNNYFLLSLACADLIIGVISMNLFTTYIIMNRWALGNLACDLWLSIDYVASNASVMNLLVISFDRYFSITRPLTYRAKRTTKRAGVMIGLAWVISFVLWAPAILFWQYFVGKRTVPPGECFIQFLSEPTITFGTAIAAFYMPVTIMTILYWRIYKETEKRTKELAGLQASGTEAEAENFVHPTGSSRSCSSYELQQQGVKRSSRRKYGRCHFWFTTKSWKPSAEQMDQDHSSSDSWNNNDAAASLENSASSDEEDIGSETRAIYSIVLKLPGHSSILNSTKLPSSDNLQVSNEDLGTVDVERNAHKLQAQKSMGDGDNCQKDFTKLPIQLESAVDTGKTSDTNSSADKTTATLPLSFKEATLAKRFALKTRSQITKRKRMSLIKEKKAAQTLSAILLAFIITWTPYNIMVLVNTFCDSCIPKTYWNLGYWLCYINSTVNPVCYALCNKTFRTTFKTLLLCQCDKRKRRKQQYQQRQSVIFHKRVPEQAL
T1 sequence (P08483 whole entry): as above

CC(C)=CCCN1CCC(NC(=O)C(O)(c2ccccc2)C2CCC2)CC1 (stereo not shown) [Example 1, N-[1-(4-methyl-3-pentenyl)-piperidin-4-yl]-2-cyclobutyl-2-hydroxy-2-phenylacetamide]
Kb (bladder M3 receptors): 31 nM | Enterokinesis ID15 (muscarinic M3 receptor [1]): 0.67 mg/kg i.v. | ED50 (muscarinic M3 receptor [2]): 1.4 mg/kg | Ki (muscarinic M3 receptor [3]): 8.9 nM | M1/M3 (muscarinic M3 receptor [3]; ratio of binding Ki, M1 over M3): 5.0 | M2/M3 (muscarinic M3 receptor [3]; ratio of binding Ki, M2 over M3): 96 | ED50 (muscarinic M3 receptor [4]): 0.19 mg/kg
